Measurements as given in ChEMBL document CHEMBL1146372, “Total synthesis of (R,R,R)- and (S,S,S)-schweinfurthin F: differences of bioactivity in the enantiomeric series” (Bioorg Med Chem Lett, 2007).

Assays:
[1] = Growth inhibition of NCI60 cells after 48 hrs; assay type: functional; conditions: Homo sapiens, NCI60, 48 h
SNB-75 = test: Growth inhibition of SNB75 cells; assay type: functional; conditions: Homo sapiens
U-251 = test: Growth inhibition of U251 cells; assay type: functional; conditions: Homo sapiens
Hs-578T = test: Growth inhibition of HS578T cells; assay type: functional; conditions: Homo sapiens
RPMI = test: Inhibition of DNA synthesis in human RPMI cells by [3H]-thymidine incorporation assay; assay type: functional, cell-based

SMILES | GI50 [1] [nM] | GI50 (SNB-75) [nM] | GI50 (U-251) [nM] | GI50 (Hs-578T) [nM] | IC50 (RPMI) [nM]
COc1cc(/C=C/c2cc(O)c(CC=C(C)C)c(O)c2)cc2c1O[C@]1(C)CC[C@@H](O)C(C)(C)[C@H]1C2 (single isomer, unassigned) [SCHWEINFURTHIN F] | 410 | 10 | 13000 | < 10 | 580
COc1cc(/C=C/c2cc3c(c(OC)c2)O[C@@]2(C)CC[C@H](O)C(C)(C)[C@@H]2C3)cc(O)c1CC=C(C)C | 4600 |  |  |  | 
CC(C)=CCC/C(C)=C/Cc1c(O)cc(/C=C/c2cc(O)c3c(c2)C[C@@H]2C(C)(C)[C@H](O)[C@H](O)C[C@@]2(C)O3)cc1O [SCHWEINFURTHIN A] | 360 |  |  |  | 
COc1cc(/C=C/c2cc(O)c(C/C=C(\C)CCC=C(C)C)c(O)c2)cc2c1O[C@]1(C)CC[C@@H](O)C(C)(C)[C@H]1C2 (single isomer, unassigned) [3-DEOXYSCHWEINFURTHIN B] | 870 |  |  |  | 210
COc1cc(/C=C/c2cc(O)c(CC=C(C)C)c(O)c2)cc2c1O[C@@]1(C)CC[C@H](O)C(C)(C)[C@@H]1C2 (single isomer, unassigned) | 130 | 1700 | < 10 | < 10 | 3400
COc1cc(/C=C/c2cc(O)c(C/C=C(\C)CCC=C(C)C)c(O)c2)cc2c1O[C@]1(C)C[C@@H](O)[C@@H](O)C(C)(C)[C@H]1C2 [SCHWEINFURTHIN B] | 810 |  |  |  | 
CC(C)=CCc1c(O)cc(/C=C/c2cc(O)c3c(c2)C[C@@H]2C(C)(C)[C@H](O)[C@H](O)C[C@@]2(C)O3)cc1O [VEDELIANIN] | 80 |  |  |  | 
COc1cc(/C=C/c2cc3c(c(OC)c2)O[C@]2(C)CC[C@@H](O)C(C)(C)[C@H]2C3)cc(O)c1CC=C(C)C | 870 |  |  |  | 
COc1cc(/C=C/c2cc(O)c(C/C=C(\C)CCC=C(C)C)c(O)c2)cc2c1O[C@@]1(C)CC[C@H](O)C(C)(C)[C@@H]1C2 (single isomer, unassigned) | 2200 |  |  |  | 4500
